Converted amounts (≈) assume the structure as drawn.
Tests used:
[1] = Plasma concentrations in infected mice after an oral dose (LC/MS/MS); assay type: in vivo; conditions: for concentration at 0.5 h / concentration at 1 h / concentration at 2 h / concentration at 4 h / concentration at 8 h / concentration at 24 h: CF-1, mouse, plasma, infected mice (n = 3), oral 100 mg/kg; for oral exposure (in words): mice infected with S. pyogenes 02C0203, 100 mg/kg
Method: (§1) In this example, the plasma concentrations of selected compounds were determined in mice that were infected with S. pyogenes 02C0203 at an oral dose of 100 mg/kg^4. Plasma samples were assayed for selected compounds using LC/MS/MS with multiple reaction monitoring. Free fractions were measured using equilibrium dialysis^5.
(§2) Separate groups of immunosuppressed mice were infected as above and orally dosed 2 hours post-infection with 100 mg/kg of the selected compounds. Thigh tissue samples (10% in PBS) and plasma were collected at 0.5, 1, 2, 4, 8 and 24 hours post-dose (n=3) for quantitation of drug levels. Bacterial burden was quantitated in the thigh tissue samples from treated mice and from infected, untreated mice at each timepoint.

S. pyogenes 02C0203 [2] = test: AUC/MIC ratios required for efficacy (PK-PD); assay type: in vivo; conditions: free AUC required for efficacy against S. pyogenes 02C0203 in mice
Method: as §1, §2

S. pyogenes 02C0203 [3] = test: In vitro MIC testing by microbroth dilution; assay type: cell-based, Streptococcus pyogenes; conditions: for antibacterial activity (in words): S. pyogenes 02C0203; for MIC: Streptococcus pyogenes, 02C0203, microbroth dilution, 35° C., 16 to 24 hours
Method: Except for clarifying or modifying statements, MIC testing followed procedures recommended by the NCCLS^1-2 or followed the descriptions cited below.
At least the following organisms are included in the screen: S. pyogenes 02C0203. Incubations were at 35° C. Stock bacterial cultures were maintained on Tryptic Soy Agar containing 5% Sheep Blood (BD, Becton Dickinson Microbiology Systems, Cockeysville, Md.), anaerobes were maintained on Anaerobic Blood Agar plates—CDC Formulation (BD), and fastidious organisms were maintained on Chocolate Agar II Plates (BD). Specific conditions of handling are listed below.
Frozen stock cultures were used as the initial source of organisms for performing microbroth dilution MIC testing. Stock cultures were passed on their standard growth medium for at least 1 growth cycle (18 to 24 hours) prior to their use.
Most bacteria, unless otherwise noted, were prepared directly from agar plates in 10 mL aliquots of the appropriate broth medium. Bacterial cultures were adjusted to the opacity of a 0.5 McFarland Standard (optical density value of 0.28-0.33 on a Perkin-Elmer Lambda EZ150 Spectrophotometer Wellesley, Mass., set at a wavelength of 600 nm). The adjusted cultures were diluted 400 fold (0.25 mL inoculum+100 mL broth) in growth media to produce a starting suspension of approximately 5×10^5 colony forming units (CFU)/mL. Unless otherwise noted, bacterial strains were tested in cation adjusted Mueller Hinton Broth (CAMHB).
Compounds were solubilized in DMSO. Drug stock solutions were prepared on the day of testing. Drugs were weight corrected for assay content where necessary.
Microbroth dilution stock plates were prepared in two dilution series, 64 to 0.06 μg drug/mL and 0.25 to 0.00025 μg drug/mL. For the high concentration series, 200 μL of stock solution ([…]) was added to duplicate rows of a 96-well microtiter plate. This was used as the first well in the dilution series. Serial two-fold decremental dilutions were made using a BioMek FX robot (Beckman Coulter Inc., Fullerton, Calif.) with 10 of the remaining 11 wells, each of which contained 100 μL of the appropriate solvent/diluent. Row 12 contained solvent/diluent only and served as the control. For tube one of the low concentration series, 200 µL of an 8 μg/mL stock was added to duplicate rows of a 96-well plate. Serial two-fold dilutions were made as described above.
Daughter plates were spotted (3.2 μL/well) from the stock plates listed above using the BioMek FX robot and were either used immediately or frozen at −70° C. until use.
Aerobic organisms were inoculated (100 μL volumes) into the thawed plates using the BioMek FX robot. The inoculated plates were placed in stacks of no more than 5 and covered with an empty plate. These plates were incubated 16 to 24 hours in ambient atmosphere according to CLSI guidelines^2.
After inoculation and incubation, the degree of bacterial growth was estimated visually with the aid of a Test Reading Mirror (Dynex Technologies 220 16) in a darkened room with a single light shining directly through the top of the microbroth tray. The MIC was the lowest concentration of drug that prevented macroscopically visible growth under the conditions of the test. Testing was performed in duplicate. When the MIC values in duplicate tests varied by 1 well (2-fold), the […] values were reported. If the MICs varied by 2 dilutions, the middle value was reported. […]

S. pyogenes 02C0203 [4] = test: Neutropenic soft tissue (thigh abscess) infection model; assay type: in vivo, CF-1 female mice; conditions: thigh tissue 24 hours post-dose
Method: In this example, the in vivo antibacterial efficacy of selected compounds was determined in a neutropenic soft tissue infection model in CF-1 female mice challenged with Streptococcus pyogenes 02C0203. With the exception of modifications discussed here, the murine soft tissue infection model was previously described by Craig et al. (6, 7, 8).
CF-1 female mice were immunosuppressed with oral doses of cyclophosphamide in sterile water on Day-4 (150 mg/kg) and Day-1 (100 mg/kg). Mice were infected intramuscularly (thigh muscle) with 7×10^5 cfu of S. pyogenes 02C0203 in 0.1 ml brain heart infusion broth on Day 0. Two hours post-infection, mice received a single oral dose of selected compounds. The compounds were administered orally from a spray dried dispersion (SDD) in 0.5% (wt/v) methylcellulose (MC), 0.5% (wt/v) hydroxypropyl methylcellulose acetate succinate medium, fine powder (HPMCAS-MF) in 20 mM Tris buffer (pH 7.4). Thigh tissue was collected 24 hours post-dose. Serial ten-fold dilutions of tissue homogenates prepared in sterile phosphate buffered saline were plated on 5% sheep blood agar plates for enumeration of bacterial burden.
as §2

Compound | concentration at 0.5 h [1] | concentration at 1 h [1] | concentration at 2 h [1] | concentration at 4 h [1] | concentration at 8 h [1] | concentration at 24 h [1] | oral exposure (in words) [1] | Target fAUC (S. pyogenes 02C0203 [2]) | antibacterial activity (in words) (S. pyogenes 02C0203 [3]) | MIC (S. pyogenes 02C0203 [3]) | Log10 geometric mean recoverable cfu (S. pyogenes 02C0203 [4]; single oral dose 12.5 mg/kg) | Mean log10 cfu reduction vs. infected controls (S. pyogenes 02C0203 [4]; single oral dose 12.5 mg/kg) | Log10 geometric mean recoverable cfu (S. pyogenes 02C0203 [4]; single oral dose 25 mg/kg) | Mean log10 cfu reduction vs. infected controls (S. pyogenes 02C0203 [4]; single oral dose 25 mg/kg) | Log10 geometric mean recoverable cfu (S. pyogenes 02C0203 [4]; single oral dose 50 mg/kg) | Mean log10 cfu reduction vs. infected controls (S. pyogenes 02C0203 [4]; single oral dose 50 mg/kg) | Log10 geometric mean recoverable cfu (S. pyogenes 02C0203 [4]; single oral dose 100 mg/kg) | Mean log10 cfu reduction vs. infected controls (S. pyogenes 02C0203 [4]; single oral dose 100 mg/kg) | Log10 geometric mean recoverable cfu (S. pyogenes 02C0203 [4]; single oral dose 200 mg/kg) | Mean log10 cfu reduction vs. infected controls (S. pyogenes 02C0203 [4]; single oral dose 200 mg/kg)
CCc1coc(-c2cc3c(c(F)c2F)N2C[C@H](C)O[C@H](C)[C@H]2C2(C3)C(=O)NC(=O)NC2=O)n1 (racemic) [Example 9, (2S,4R,4aR)-8-(4-ethyloxazol-2-yl)-9,10-difluoro-2,4-dimethyl-2,4,4a,6-tetrahydro-1H,1′H-spiro[[1,4]oxazino[4,3-a]quinoline-5,5′-pyrimidine]-2′,4′,6′(3′H)-trione] | 19400 ng/mL | 19000 ng/mL | 23000 ng/mL | 22900 ng/mL | 18100 ng/mL | 2180 ng/mL | demonstrated oral exposure | 4000 ng·h/mL | antibacterial activity | 1 µg/mL (≈ 2.17 µM) |  |  |  |  |  |  |  |  |  | 
Cc1cc(-c2cc3c(c(F)c2F)N2C[C@@H](C)O[C@@H](C)[C@@H]2C2(C3)C(=O)NC(=O)NC2=O)on1 (single isomer, unassigned) [Example 2] |  |  |  |  |  |  |  |  |  |  | 6.23 | 0.47 | 5.76 | 0.94 | 5.07 | 1.63 | 2.11 | 4.59 | 1.92 | 4.78
Cc1coc(-c2cc(F)c3c(c2)CC2(C(=O)NC(=O)NC2=O)[C@H]2[C@H](C)O[C@H](C)CN32)n1 (single isomer, unassigned) [Example 1] | 13500 ng/mL | 13300 ng/mL | 21500 ng/mL | 24500 ng/mL | 7450 ng/mL | 176 ng/mL | demonstrated oral exposure | 2000 ng·h/mL | antibacterial activity | 1 µg/mL (≈ 2.33 µM) | 6.17 | 0.53 | 5.45 | 1.25 | 4.60 | 2.10 | 3.49 | 3.21 | 2.85 | 3.85
Cc1ncc(-c2cc3c(cc2F)N2C[C@@H](C)O[C@@H](C)[C@@H]2C2(C3)C(=O)NC(=O)NC2=O)cn1 [Comparator Compound from the Literature, reference compound] | 11100 ng/mL | 17100 ng/mL | 16000 ng/mL | 8530 ng/mL | 3700 ng/mL | 1400 ng/mL |  |  |  | 2 µg/mL (≈ 4.55 µM) | 6.48 | −0.11 | 6.52 | −0.07 | 6.48 | −0.11 | 4.62 | −1.97 | 4.32 | −2.27

— patent publication US8952149B2, “Tricyclic tetrahydroquinoline antibacterial agents” (Zoetis LLC, priority 2012, dated 2015)
